Assay results: ChEMBL document CHEMBL1140749, “Novel copper(II) complex of N-propyl-norfloxacin and 1,10-phenanthroline with enhanced antileukemic and DNA nuclease activities” (2008)
Values after ≈ are worked out from the molar mass of the structure shown.

Tests used:
Assay type in all cases: functional
[1] = tested on: Staphylococcus aureus; assay: Antibacterial activity against Staphylococcus aureus
[2] = tested on: Pseudomonas aeruginosa; assay: Antibacterial activity against Pseudomonas aeruginosa
[3] = tested on: Escherichia coli; assay: Antibacterial activity against Escherichia coli

Row | Structure (SMILES) | MIC [1] | MIC [2] | MIC [3]
1 | CCCN1CCN(c2cc3c(cc2F)c(=O)c(C(=O)O)cn3CC)CC1 | 16 µg/mL (≈ 44.3 µM) | 4 µg/mL (≈ 11.1 µM) | 4 µg/mL (≈ 11.1 µM)
2 | CCn1cc(C(=O)O)c(=O)c2cc3c(cc21)OCO3 [OXOLINIC ACID] | 16 µg/mL (≈ 61.2 µM) | 16 µg/mL (≈ 61.2 µM) | 1 µg/mL (≈ 3.83 µM)

Second part, the molecule after the results:

Row | MIC [1] | MIC [2] | MIC [3] | Structure (SMILES)
3 | 256 µg/mL (≈ 1640 µM) | 256 µg/mL (≈ 1640 µM) | 256 µg/mL (≈ 1640 µM) | c1ccc(-c2ccccn2)nc1 [DIPYRIDYL]
4 | 8 µg/mL (≈ 22.3 µM) | 1 µg/mL (≈ 2.78 µM) | 1 µg/mL (≈ 2.78 µM) | CCN1CCN(c2cc3c(cc2F)c(=O)c(C(=O)O)cn3C2CC2)CC1 [ENROFLOXACIN]
5 | 32 µg/mL (≈ 178 µM) | 32 µg/mL (≈ 178 µM) | 32 µg/mL (≈ 178 µM) | c1cnc2c(c1)ccc1cccnc12 [PHENANTHROLINE]
